Measurements reported in patent US10059741B2 (priority 2015, dated 2018).
“And” between values parts separate entries of the source, which are not always exact repeats. Identical values can stand only once. Like-named read-outs stand apart in the source and are kept apart here. Bridge positions count the residues as written; N and C are the ends. Square brackets hold non-standard residues; d marks the D form. Peptide text beside a SMILES is read from it. * marks the point of attachment. 5FAM = O=C1OC2(c3ccc(O)cc3Oc3cc(O)ccc32)c2ccc(C(=O)*)cc21; S5 = C=CCCC[C@](C)(N)C(=O)O; Nle = CCCC[C@H](N)C(=O)O; Aib = CC(C)(N)C(=O)O; βAla = NCCC(=O)O

Columns and labels:
[1] = system: H1N1 California/07/2009; test: microbe, parasite or virus in culture; assay type: cell-based, influenza A virus
[2] = system: H3N2 Perth/16/2009; test: microbe, parasite or virus in culture; assay type: cell-based, influenza A virus; conditions: read-out: EC50 (μM) H3N2 Perth/16/2009
[3] = system: H1N1 California/07/2009; test: microbe, parasite or virus in culture; assay type: cell-based, influenza A virus; remark: listed apart in the source
[4] = system: H3N2 Perth/16/2009; test: microbe, parasite or virus in culture; assay type: cell-based, influenza A virus; conditions: read-out: EC50 (μM) H3N2 Perth/16/2009; remark: listed apart in the source
[5] = in vitro; conditions: dog
[6] = read-out: EC50 (μM) H1N1 California/07/2009
[7] = CC50 (μM) H1N1 California/07/2009, Cell cytotoxicity (CC), run with H1N1 California/07/2009
[8] = CC50 (μM) H3N2 Perth/16/2009, Cell cytotoxicity (CC), run with H3N2 Perth/16/2009
[9] = CC50, MDCK cells, run with Influenza A H1N1 California/07/2009, Neutral Red
[10] = CC50, MDCK cells, run with Influenza A H1N1 California/07/2009, Visual
[11] = CC50, run with Influenza A H1N1 California/07/2009, Neutral Red
[12] = CC50, run with Influenza A H1N1 California/07/2009, Visual
[13] = CC50, run with Influenza A H3N2 Perth/16/2006 (so in the source), Neutral Red
[14] = CC50, run with Influenza A H3N2 Perth/16/2006 (so in the source), Visual

| Compound | EC50 [1, 6] [µM] | EC50 [2] [µM] | EC50 [3, 6] [µM] | EC50 [4] [µM] | CC50 [5, 7] [µM] | CC50 [5, 8] [µM] | CC50 [5, 9] [µM] | CC50 [5, 10] [µM] | EC50 ([3]; read-out: EC50) | CC50 [5, 11] [µM] | CC50 [5, 12] [µM] | CC50 [5, 13] [µM] | CC50 [5, 14] [µM] | EC50 ([1]; read-out: EC50) [µM] |
| --- | --- | --- | --- | --- | --- | --- | --- | --- | --- | --- | --- | --- | --- | --- |
| CCCC[C@H](NC(C)=O)C(=O)N[C@@H](CC(=O)O)C(=O)N[C@H](C(=O)N[C@@H](CC(N)=O)C(=O)N[C@@]1(C)CCCC=CCCC[C@@](C)(C(=O)N[C@@H](CC(C)C)C(=O)N[C@@H](CCCCN)C(=O)N[C@@H](C)C(=O)NC(C)(C)C(=O)N[C@@H](C)C(=O)N[C@@H](CCC(N)=O)C(N)=O)NC(=O)[C@H](CC(C)C)NC(=O)[C@H](CC(C)C)NC(=O)[C@H]([C@@H](C)O)NC1=O)C(C)C [SP-1] (Ac-[Nle]DVN[S5]TLL[S5]LKA[Aib]AQ-NH2; staple 5-9) | > 50 | 25 to 50 | 25 to 50 | 25 to 50 | > 100 | > 100 | > 100 | > 100 |  |  |  |  |  |  |
| CCCC[C@H](NC(C)=O)C(=O)N[C@@H](CC(=O)O)C(=O)N[C@H](C(=O)N[C@@H](CC(N)=O)C(=O)N[C@@]1(C)CCCC=CCCC[C@@](C)(C(=O)N[C@@H](CC(C)C)C(=O)N[C@@H](CCCCN)C(=O)N[C@H](C(=O)NC(C)(C)C(=O)N[C@@H](C)C(=O)N[C@@H](C)C(N)=O)C(C)C)NC(=O)[C@H](CC(C)C)NC(=O)[C@H](CC(C)C)NC(=O)[C@H]([C@@H](C)O)NC1=O)C(C)C [SP-2] (Ac-[Nle]DVN[S5]TLL[S5]LKV[Aib]AA-NH2; staple 5-9) | > 50 | 10 to 25 | > 50 | 25 to 50 | > 100 | > 100 | > 100 | > 100 | 51 µM and 32 µM |  |  |  |  |  |
| CCCC[C@H](NC(C)=O)C(=O)N[C@@H](CC(=O)O)C(=O)N[C@H](C(=O)N[C@@H](CC(N)=O)C(=O)N[C@@]1(C)CCCC=CCCC[C@@](C)(C(=O)N[C@@H](CC(C)C)C(=O)N[C@@H](CCCCN)C(=O)N[C@H](C(=O)N2CCC[C@H]2C(=O)NC(C)(C)C(=O)N[C@@H](CCC(N)=O)C(N)=O)C(C)C)NC(=O)[C@H](CC(C)C)NC(=O)[C@H](CC(C)C)NC(=O)[C@H]([C@@H](C)O)NC1=O)C(C)C [SP-3] (Ac-[Nle]DVN[S5]TLL[S5]LKVP[Aib]Q-NH2; staple 5-9) | > 50 | 25 to 50 | > 50 | > 50 | > 100 | > 100 | > 100 | > 100 | > 100 µM and 73 µM |  |  |  |  |  |
| CC(=O)N[C@@H](Cc1ccccc1)C(=O)N[C@@H](CC(=O)O)C(=O)N[C@H](C(=O)N[C@@H](CC(N)=O)C(=O)N[C@@]1(C)CCCC=CCCC[C@@](C)(C(=O)N[C@@H](CC(C)C)C(=O)N[C@@H](CCCCN)C(=O)N[C@H](C(=O)NC(C)(C)C(=O)N[C@@H](C)C(=O)N[C@@H](CCC(N)=O)C(N)=O)C(C)C)NC(=O)[C@H](CC(C)C)NC(=O)[C@H](CC(C)C)NC(=O)[C@H]([C@@H](C)O)NC1=O)C(C)C [SP-4] (Ac-FDVN[S5]TLL[S5]LKV[Aib]AQ-NH2; staple 5-9) | > 50 | 25 to 50 | > 50 | 25 to 50 | > 100 | > 100 | > 100 | > 100 |  |  |  |  |  |  |
| CCCC[C@H](NC(=O)CCNC(=O)c1ccc2c(c1)C(=O)OC21c2ccc(O)cc2Oc2cc(O)ccc21)C(=O)N[C@@H](CC(=O)O)C(=O)N[C@H](C(=O)N[C@@H](CC(N)=O)C(=O)N[C@@]1(C)CCCC=CCCC[C@@](C)(C(=O)N[C@@H](CC(C)C)C(=O)N[C@@H](C)C(=O)N[C@H](C(=O)NC(C)(C)C(=O)N[C@@H](C)C(=O)N[C@@H](CCC(N)=O)C(N)=O)C(C)C)NC(=O)[C@H](CC(C)C)NC(=O)[C@H](CC(C)C)NC(=O)[C@H]([C@@H](C)O)NC1=O)C(C)C [SP-5] ({5FAM-βAla}-[Nle]DVN[S5]TLL[S5]LAV[Aib]AQ-NH2; staple 5-9) |  |  |  |  | > 100 | > 100 | > 100 | > 100 |  |  |  |  |  |  |
| CCCC[C@H](NC(C)=O)C(=O)N[C@@H](CC(=O)O)C(=O)N[C@H](C(=O)N[C@@H](CC(N)=O)C(=O)N[C@@]1(C)CCCC=CCCC[C@@](C)(C(=O)N[C@@H](CC(C)C)C(=O)N[C@@H](C)C(=O)N[C@H](C(=O)NC(C)(C)C(=O)N[C@@H](C)C(=O)N[C@@H](CCC(N)=O)C(=O)N[C@@H](C)C(=O)N[C@@H](C)C(N)=O)C(C)C)NC(=O)[C@H](CC(C)C)NC(=O)[C@H](CC(C)C)NC(=O)[C@H]([C@@H](C)O)NC1=O)C(C)C [SP-7] (Ac-[Nle]DVN[S5]TLL[S5]LAV[Aib]AQAA-NH2; staple 5-9) | 10 to 25 | 25 to 50 | 10 to 25 | 25 to 50 | > 100 | > 100 | > 100 | > 100 |  |  |  |  |  |  |
| CCCC[C@H](NC(C)=O)C(=O)N[C@@H](CC(=O)O)C(=O)N[C@H](C(=O)N[C@@H](CC(N)=O)C(=O)N[C@@]1(C)CCCC=CCCC[C@@](C)(C(=O)N[C@@H](CC(C)C)C(=O)N[C@@H](C)C(=O)N[C@H](C(=O)NC(C)(C)C(=O)N[C@@H](C)C(=O)N[C@@H](CCC(N)=O)C(=O)N[C@@H](C)C(=O)N[C@H](C)C(N)=O)C(C)C)NC(=O)[C@H](CC(C)C)NC(=O)[C@H](CC(C)C)NC(=O)[C@H]([C@@H](C)O)NC1=O)C(C)C [SP-16] (Ac-[Nle]DVN[S5]TLL[S5]LAV[Aib]AQA[dA]-NH2; staple 5-9) | 10 to 25 | 25 to 50 | 10 to 25 | 25 to 50 | > 100 | > 100 | > 100 | > 100 |  |  |  |  |  |  |
| CCCC[C@H](NC(C)=O)C(=O)N[C@@H](CC(=O)O)C(=O)N[C@H](C(=O)N[C@@H](CC(N)=O)C(=O)N[C@@]1(C)CCCC=CCCC[C@@](C)(C(=O)N[C@@H](CC(C)C)C(=O)N[C@@H](C)C(=O)N[C@H](C(=O)NC(C)(C)C(=O)N[C@@H](C)C(=O)N[C@@H](CCC(N)=O)C(=O)N[C@@H](C)C(=O)N[C@H](C)C(=O)O)C(C)C)NC(=O)[C@H](CC(C)C)NC(=O)[C@H](CC(C)C)NC(=O)[C@H]([C@@H](C)O)NC1=O)C(C)C [SP-17] (Ac-[Nle]DVN[S5]TLL[S5]LAV[Aib]AQA[dA]-OH; staple 5-9) | 25 to 50 | 10 to 25 | 25 to 50 | 10 to 25 | > 100 | > 100 | > 100 | > 100 |  |  |  |  |  |  |
| CCCC[C@H](NC(C)=O)C(=O)N[C@@H](CC(=O)O)C(=O)N[C@H](C(=O)N[C@@H](CC(N)=O)C(=O)N[C@@]1(C)CCCC=CCCC[C@@](C)(C(=O)N[C@@H](CC(C)C)C(=O)N[C@@H](C)C(=O)N[C@H](C(=O)N[C@@H](CCC(N)=O)C(=O)NC(C)(C)C(=O)N[C@@H](CCC(N)=O)C(=O)N[C@@H](C)C(=O)N[C@@H](C)C(N)=O)C(C)C)NC(=O)[C@H](CC(C)C)NC(=O)[C@H](CC(C)C)NC(=O)[C@H]([C@@H](C)O)NC1=O)C(C)C [SP-19] (Ac-[Nle]DVN[S5]TLL[S5]LAVQ[Aib]QAA-NH2; staple 5-9) | 1.5 to 10 | 1.5 to 10 | 1.5 to 10 | 1.5 to 10 | > 100 | > 100 |  |  |  | > 100 | > 100 | > 100 | > 100 |  |
| CCCC[C@H](NC(C)=O)C(=O)N[C@@H](CC(=O)O)C(=O)N[C@H](C(=O)N[C@@H](CC(N)=O)C(=O)N[C@@]1(C)CCCC=CCCC[C@@](C)(C(=O)N[C@@H](CC(C)C)C(=O)N[C@@H](C)C(=O)N[C@H](C(=O)N[C@@H](CCC(N)=O)C(=O)N[C@@H](C)C(=O)N[C@@H](CCC(N)=O)C(=O)NC(C)(C)C(=O)N[C@@H](C)C(N)=O)C(C)C)NC(=O)[C@H](CC(C)C)NC(=O)[C@H](CC(C)C)NC(=O)[C@H]([C@@H](C)O)NC1=O)C(C)C [SP-20] (Ac-[Nle]DVN[S5]TLL[S5]LAVQAQ[Aib]A-NH2; staple 5-9) | 10 to 25 | 1.5 to 10 | 25 to 50 | 1.5 to 10 | > 100 | > 100 |  |  |  | > 100 | > 100 | > 100 | > 100 |  |
| CCCC[C@H](NC(C)=O)C(=O)N[C@@H](CC(=O)O)C(=O)N[C@H](C(=O)N[C@@H](CC(N)=O)C(=O)N[C@@]1(C)CCCC=CCCC[C@@](C)(C(=O)N[C@@H](CC(C)C)C(=O)N[C@@H](C)C(=O)N[C@H](C(=O)N[C@@H](CCC(N)=O)C(=O)N[C@@H](C)C(=O)NC(C)(C)C(=O)N[C@@H](C)C(=O)N[C@@H](C)C(N)=O)C(C)C)NC(=O)[C@H](CC(C)C)NC(=O)[C@H](CC(C)C)NC(=O)[C@H]([C@@H](C)O)NC1=O)C(C)C [SP-23] (Ac-[Nle]DVN[S5]TLL[S5]LAVQA[Aib]AA-NH2; staple 5-9) | 1.5 to 10 | 1.5 to 10 | 1.5 to 10 | 1.5 to 10 | > 100 | > 100 |  |  | 4.2 µM | > 100 | > 100 | > 100 | > 100 | 4.3 |
